Experimental data published in PubChem BioAssay (NCI).
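Following 48 hours of exposure in 96-well plates, responses at five concentrations were used to interpolate endpoints linearly. At the GI50, growth is halved. The concentration for full growth arrest is given as TGI.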

Assays:
Test in all cases: DTP human tumour cell line panel, 48 h
M14 melanoma = system: M14 melanoma
MDA-MB-435 = system: MDA-MB-435
HT29 colon = system: HT29 colon
SW-620 colon = system: SW-620 colon
RPMI-8226 leukemia = system: RPMI-8226 leukemia
NCI-H226 lung = system: NCI-H226 lung
CAKI-1 renal = system: CAKI-1 renal
U251 CNS = system: U251 CNS
SN12C renal = system: SN12C renal
OVCAR-3 ovarian = system: OVCAR-3 ovarian

Row | SMILES | GI50 (M14 melanoma) | TGI (M14 melanoma) | GI50 (MDA-MB-435) | TGI (MDA-MB-435) | GI50 (HT29 colon) | TGI (HT29 colon) | GI50 (SW-620 colon) | TGI (SW-620 colon) | GI50 (RPMI-8226 leukemia) | TGI (RPMI-8226 leukemia) | GI50 (NCI-H226 lung) | TGI (NCI-H226 lung) | GI50 (CAKI-1 renal) | TGI (CAKI-1 renal) | GI50 (U251 CNS) | TGI (U251 CNS) | GI50 (SN12C renal) | TGI (SN12C renal) | GI50 (OVCAR-3 ovarian) | TGI (OVCAR-3 ovarian)
1 | CN1CCCCC1CCN1c2ccccc2Sc2ccc(Cl)cc21 (stereo unspecified) | 2.02 µM | 3.97 µM | 1.86 µM | 4.04 µM | 3.17 µM | 11.1 µM | 2.87 µM | 10.1 µM | 3.17 µM | 9.29 µM | 12.9 µM | 32.1 µM | 3.63 µM | 15.8 µM | 2.59 µM | 6.76 µM | 3.65 µM | 13.9 µM | 4.04 µM | 14.6 µM
2 | COc1cc(/C=N\NC(=O)CN2CCN(c3cc4c(cc3F)c(=O)c(C(=O)N/N=C/c3cc(OC)c(OC)c(OC)c3)cn4C3CC3)CC2)cc(OC)c1OC | 0.429 µM | > 49.5 µM | 0.237 µM | 0.559 µM | 0.278 µM |  | 0.328 µM | > 100 µM | 0.299 µM |  | 0.34 µM | 1.2 µM | > 50.5 µM | > 100 µM | 0.328 µM | > 100 µM | 0.225 µM | 0.601 µM | 0.214 µM | 0.458 µM
3 | CCN1/C(=C\c2cc[n+](CC)c3ccccc23)C=Cc2ccccc21 | 0.302 µM | 2.47 µM | 0.109 µM | 1.16 µM | 0.202 µM | 10.8 µM | 0.23 µM | 7.81 µM | 0.0503 µM | 0.753 µM | 0.301 µM | 13.1 µM | 4.71 µM | 22.5 µM | 0.119 µM | 12.7 µM | 0.233 µM | 11.9 µM | 0.118 µM | 1.08 µM
4 | O=C1NC(=NCCc2cccc(F)c2)S/C1=C\c1ccc2ncccc2c1 | 3.6 µM | > 25 µM | 0.312 µM | 1.19 µM | 1.05 µM | > 25 µM | 0.819 µM | > 25 µM | 1.73 µM | > 25 µM | > 12.9 µM | > 25 µM | 2.43 µM | > 25 µM | 1.46 µM | > 25 µM | > 16 µM | > 25 µM | 1.76 µM | > 25 µM
5 | COc1cc2c(c(OC)c1OC)-c1ccc(NNC(N)=S)c(=O)cc1[C@@H](NC(C)=O)CC2 | 0.284 µM | 0.735 µM | 0.255 µM |  | 0.365 µM | > 100 µM | 0.365 µM | > 100 µM | 0.39 µM | > 29.4 µM |  | > 100 µM | 11.7 µM | > 100 µM | 0.415 µM | > 100 µM | 0.881 µM | > 100 µM | 0.238 µM | 0.623 µM
6 | FC(F)(F)c1cccc(Nc2nc(-c3ccccc3)nc3ncccc23)c1 | 3.79 µM | 16.5 µM | 3.77 µM | 22.8 µM | 3.15 µM | 12 µM | 5.2 µM | 24.7 µM | 3.09 µM | 9.16 µM | 6.25 µM | 35.6 µM | 3.86 µM | 18.7 µM | 3.52 µM | 14.7 µM | 5 µM | 64.3 µM | 5.2 µM | 28 µM
7 | O=C1/C(=C/c2ccc(O)c(O)c2)CCC/C1=C\c1ccc(O)c(O)c1 |  | 18.4 µM |  | 16.7 µM |  | 21.2 µM |  | 23.3 µM |  | > 44.7 µM |  | 9.43 µM |  | 12.5 µM |  | 15.7 µM |  | 24.9 µM |  | 17.8 µM
8 | CCN(CC)N=Nc1c(C(N)=O)n[nH]c1C |  | > 100 µM |  | > 100 µM |  | > 100 µM |  | > 100 µM |  | > 100 µM |  | > 100 µM |  | > 100 µM |  | > 100 µM |  | > 100 µM |  | > 100 µM
9 | CCOC1Oc2ccccc2C(=O)/C1=C/Nc1ccc(C(C)=O)cc1 (stereo unspecified) | 17.4 µM | 35.9 µM | 24.3 µM | 61.9 µM | 36.3 µM | > 100 µM | 26.7 µM | 72.6 µM | 15.9 µM | 68.3 µM | 26.7 µM | 68.1 µM | 19 µM | 45.3 µM | 23.9 µM | 67.5 µM | 19.4 µM | 47.8 µM | 17.2 µM | 43.8 µM
10 | Cc1ccnc2c1ccc1c(C)ccnc12 | 0.294 µM | 10.2 µM | 0.481 µM | 13.1 µM | 0.491 µM | 12.6 µM | 0.429 µM | 15.9 µM | 0.468 µM | 14.3 µM | 0.412 µM | 8.21 µM | 0.209 µM | 10 µM | 0.419 µM | 11.5 µM | 0.441 µM | 13.1 µM | 0.526 µM | 11.4 µM
11 | COC(=O)/C=C1\S/C(=N\NC(=O)c2cc3ccc2/C=C\c2ccc(cc2)/C=C\3)N(c2ccccc2)C1=O | 3.27 µM | 15.4 µM | 5.44 µM | > 100 µM | 1.93 µM | 4.07 µM | 1.85 µM | 3.66 µM | 2.15 µM | 5.69 µM | 4.38 µM | 25.5 µM | 3.74 µM | 30 µM | 1.89 µM | 4 µM | 2.27 µM | 5.94 µM | 1.8 µM | 3.61 µM
